This is an account of results in US20240423973A1, “COMPOUNDS, PHARMACEUTICAL COMPOSITIONS, AND METHODS FOR THE TREATMENT, PREVENTION, OR MANAGEMENT OF HYPERPROLIFERATIVE DISORDERS” (VINCERX PHARMA GMBH, priority 2021, published 2024).

A short description of series [1]: Pharmacokinetics in rat after intravenous administration. As to conditions: male rats, intravenous 0.5 mg/kg bolus, plasma, non-compartmental analysis; for Vd: read-out: Vss. It counts as in vivo. Here is the method:
Male rats (n=3) were given an intravenous 0.5 mg/kg bolus dose of test article dissolved in plasma with 1% DMSO and 1% ethanol (Ex A3 only). Serial blood samples were collected up to 24 hours post-dose. Plasma was harvested from blood samples and stored frozen until sample analysis. Test article plasma concentrations were analyzed by LC/MS/MS.

For series [2], the system named is SUM149. The experiment in a line: Cytotoxicity in vitro in the presence and absence of elastase (MTT assay). As to conditions: SUM149 cells, 72 h. It counts as cell-based. Here is the method:
(§1) Cultivation of cells was performed according to standard procedures with the media recommended by the provider. The cells, in a total volume of 100 μL, were seeded in a 96-well plate with a white bottom (#3610). After a 24 h incubation period at 37° C. and 5% CO2, the medium was exchanged by adding 90 μL fresh medium. The treatment started by adding the test compound in 10 μL of culture medium to the cells in triplicates. Concentrations ranging from 10^−5 M to 10^−13 M were chosen. Two identically treated sets of samples were prepared. One set was treated with the test compound alone, whereas to the second set the compound and 10 nM elastase was added followed by a 72 h incubation period at 37° C. and 5% CO2. The proliferation was detected using the MTT assay (ATCC). At the end of the incubation period the MTT reagent was added to all samples for 4h. Lysis of the cells followed by addition of the detergent was done overnight. The formed dye was detected at 570 nm. The proliferation of untreated but otherwise identically handled cells was define as the […].
(Formazan colour is commonly taken as a measure of viable cells.)

In series [3] the test system is NCI H292. Described as above. It counts as cell-based, human. The note with it: NCI H292 cells, 72 h. Here is the method: as §1
Series [4] concerns HT29. The series is described as above. It counts as cell-based, human. The note with it: HT29 cells, 72 h. The procedure:
as §1

The subject of series [5] is 786-O. The series is described as above. It counts as cell-based, human. The note with it: 786-O cells, 72 h. Here is the method: as §1

Each structure is given as a SMILES string. *1 amine or outer side, *2 acyl side, *3 side chain or, on linkers, in order; H or OH if unused. Where a SMILES comes first, the peptide text is derived from it. Bridges are numbered along the chain shown (N, C = ends). Roman numbers before positions name the chains, in order. [ ]: non-standard residue; d: D form. The star is where a group is joined. X1 = CCCNC(=O)Nc1cccc(S(=O)(=O)Nc2cccc([C@@H](CC(=O)O)NC(=O)Nc3ccc(N*)cc3)c2)c1; Camptothecin(7-Et) = CCc1c2c(nc3ccccc13)-c1cc3c(c(=O)n1C2)COC(=O)[C@@]3(CC)O*; Glutaryl = O=C(CCCC(=O)[*:2])[*:1]; PEG3 = NCCOCCOCCOCCC(=O)O; CO = O=C([*:1])[*:2]; Sar = CNCC(=O)O

On to `CCCNC(=O)Nc1cccc(S(=O)(=O)Nc2cccc([C@@H](CC(=O)O)NC(=O)Nc3ccc(NC(=O)NCCOCCOCCOCCC(=O)NCCCC[C@H](NC(=O)CCOCCOCCOCCNC(=O)Nc4ccc(NC(=O)N[C@H](CC(=O)O)c5cccc(NS(=O)(=O)c6cccc(NC(=O)NCCC)c6)c5)cc4)C(=O)NCCOCCOCCOCCC(=O)N[C@@H](CC(=O)O)C(=O)N4CCC[C@H]4C(=O)N[C@H](C(=O)O[C@]4(CC)C(=O)OCc5c4cc4n(c5=O)Cc5c-4nc4ccccc4c5CC)C(C)C)cc3)c2)c1` [Compound A3], for which, in series [1], the AUC lay within 50000 to 150000 ng·h/mL, the clearance was 0.05 to 0.5 mL/min/kg, the half-life lay in the range of 10 to 15 h and the Vd lay in the range of 0.01 to 0.1 L/kg.
In the case of `CCCNC(=O)Nc1cccc(S(=O)(=O)Nc2cccc([C@@H](CC(=O)O)NC(=O)Nc3ccc(NC(=O)NCCOCCOCCOCCC(=O)N[C@@H](CC(=O)OCCCCN(C)C)C(=O)N4CCC[C@H]4C(=O)N[C@H](C(=O)O[C@]4(CC)C(=O)OCc5c4cc4n(c5=O)Cc5c-4nc4ccccc4c5CC)C(C)C)cc3)c2)c1` [Compound C6, sodium (3R)-3-[({4-[({(10S)-10-[(2S)-2-{[(2S)-1-{[(4S)-4,11-diethyl-3,14-dioxo-3,4,12,14-tetrahydro-1H-pyrano[3′,4′:6,7]indolizino[1,2-b]quinolin-4-yl]oxy}-3-methyl-1-oxobutan-2-yl]carbamoyl}pyrrolidine-1-carbonyl]-2-methyl-8,12-dioxo-7,15,18,21-tetraoxa-2,11-diazatricosan-23-yl}carbamoyl)amino]phenyl}carbamoyl)amino]-3-[3-({3-[(propylcarbamoyl)amino]benzene-1-sulfonyl}amino)phenyl]propanoate], the IC50 was in the range of 10 to 100 nM in series [2] (compound alone (no elastase)); 0.01 to 0.1 nM in series [2] (with 10 nM elastase); 10 to 100 nM in series [3] (compound alone (no elastase)); 0.1 to 1 nM in series [3] (with 10 nM elastase); 10 to 100 nM in series [4] (compound alone (no elastase)); 0.1 to 1 nM in series [4] (with 10 nM elastase). In addition, the IC50 was in the range of 10 to 100 nM in series [5] (compound alone (no elastase)) and 0.1 to 1 nM in series [5] (with 10 nM elastase).
On to `CCCNC(=O)Nc1cccc(S(=O)(=O)Nc2cccc([C@@H](CC(=O)OCCCCN)NC(=O)Nc3ccc(NC(=O)NCCOCCOCCOCCC(=O)N[C@@H](CC(=O)OCCCCN)C(=O)N4CCC[C@H]4C(=O)N[C@H](C(=O)O[C@]4(CC)C(=O)OCc5c4cc4n(c5=O)Cc5c-4nc4ccccc4c5CC)C(C)C)cc3)c2)c1` [Compound C7], for which the IC50 in series [2] (compound alone (no elastase)) was 1.1 to 10 nM; in series [2] (with 10 nM elastase) it was less than 0.01 nM; in series [3] (compound alone (no elastase)) it was 1.1 to 10 nM; in series [3] (with 10 nM elastase) it was 0.01 to 0.1 nM; in series [4] (compound alone (no elastase)), greater than 100 nM; in series [4] (with 10 nM elastase), 0.1 to 1 nM. In addition, the 50% inhibitory concentration (IC50) lay in the range of 10 to 100 nM in series [5] (compound alone (no elastase)) and 0.1 to 1 nM in series [5] (with 10 nM elastase).
As for `CCCNC(=O)Nc1cccc(S(=O)(=O)Nc2cccc([C@@H](CC(=O)OCCCN)NC(=O)Nc3ccc(NC(=O)NCCOCCOCCOCCC(=O)N[C@@H](CC(=O)OCCCN)C(=O)N4CCC[C@H]4C(=O)N[C@H](C(=O)O[C@]4(CC)C(=O)OCc5c4cc4n(c5=O)Cc5c-4nc4ccccc4c5CC)C(C)C)cc3)c2)c1` [Compound C8], the IC50 in series [2] (compound alone (no elastase)) is 1.1 to 10 nM; in series [2] (with 10 nM elastase) it was 0.1 to 1 nM; in series [3] (compound alone (no elastase)), 1.1 to 10 nM; in series [3] (with 10 nM elastase) it was 0.1 to 1 nM; in series [4] (compound alone (no elastase)), greater than 100 nM; in series [4] (with 10 nM elastase), 0.1 to 1 nM. The IC50 in series [5] (compound alone (no elastase)) was in the range of 10 to 100 nM; in series [5] (with 10 nM elastase) it was 0.1 to 1 nM.
As for `CCCNC(=O)Nc1cccc(S(=O)(=O)Nc2cccc([C@@H](CC(=O)OCC[N+](C)(C)C)NC(=O)Nc3ccc(NC(=O)NCCOCCOCCOCCC(=O)N[C@@H](CC(=O)OCC[N+](C)(C)C)C(=O)N4CCC[C@H]4C(=O)N[C@H](C(=O)O[C@]4(CC)C(=O)OCc5c4cc4n(c5=O)Cc5c-4nc4ccccc4c5CC)C(C)C)cc3)c2)c1` [Compound C9], the half-inhibitory concentration (IC50) in series [2] (compound alone (no elastase)) lay within 10 to 100 nM; in series [2] (with 10 nM elastase) it was 0.1 to 1 nM; in series [3] (compound alone (no elastase)), 10 to 100 nM; in series [3] (with 10 nM elastase), 0.1 to 1 nM; in series [4] (compound alone (no elastase)), 10 to 100 nM; in series [4] (with 10 nM elastase) it was 0.1 to 1 nM. Moreover, the IC50 in series [5] (compound alone (no elastase)) lay within 10 to 100 nM; in series [5] (with 10 nM elastase), 1.1 to 10 nM.
Take `CCCNC(=O)Nc1cccc(S(=O)(=O)Nc2cccc([C@@H](CC(=O)O)NC(=O)Nc3ccc(NC(=O)NCCN(C)CCN(C)CCN(C)CC(=O)NCCN(C)CCN(C)CCN(C)CC(=O)N[C@@H](CC(N)=O)C(=O)N4CCC[C@H]4C(=O)N[C@H](C(=O)O[C@]4(CC)C(=O)OCc5c4cc4n(c5=O)Cc5c-4nc4ccccc4c5CC)C(C)C)cc3)c2)c1` [Compound D1]: the IC50 in series [2] (compound alone (no elastase)) fell in the range of 10 to 100 nM; in series [2] (with 10 nM elastase), 0.1 to 1 nM; in series [3] (compound alone (no elastase)), 10 to 100 nM; in series [3] (with 10 nM elastase), 1.1 to 10 nM; in series [4] (compound alone (no elastase)), 10 to 100 nM; in series [4] (with 10 nM elastase), 1.1 to 10 nM. Further, the IC50 in series [5] (compound alone (no elastase)) lay in the range of 10 to 100 nM; in series [5] (with 10 nM elastase), 1.1 to 10 nM.
On to `CCCNC(=O)Nc1cccc(S(=O)(=O)Nc2cccc([C@H](CC(=O)O)NC(=O)Nc3ccc(NC(=O)NCCN(C)CCN(C)CCN(C)CC(=O)NCCN(C)CCN(C)CCN(C)CC(=O)N[C@@H](CC(N)=O)C(=O)N4CCC[C@H]4C(=O)N[C@H](C(=O)O[C@]4(CC)C(=O)OCc5c4cc4n(c5=O)Cc5c-4nc4ccccc4c5CC)C(C)C)cc3)c2)c1` [Compound D2], for which the IC50 in series [2] (compound alone (no elastase)) is 1.1 to 10 nM; in series [2] (with 10 nM elastase) it was 0.1 to 1 nM; in series [3] (compound alone (no elastase)) it was 10 to 100 nM; in series [3] (with 10 nM elastase) it was 0.1 to 1 nM; in series [4] (compound alone (no elastase)), 10 to 100 nM; in series [4] (with 10 nM elastase), 0.1 to 1 nM. Besides, the IC50 was 10 to 100 nM in series [5] (compound alone (no elastase)) and 0.1 to 1 nM in series [5] (with 10 nM elastase).
Take `CCCNC(=O)Nc1cccc(S(=O)(=O)Nc2cccc([C@@H](CC(=O)O)NC(=O)Nc3ccc(NC(=O)NCCOCCOCCOCCC(=O)N[C@@H](CCCCNC(=O)CCCC(=O)NCCOCCOCCOCCC(=O)N[C@@H](CC(=O)O)C(=O)N4CCC[C@H]4C(=O)N[C@H](C(=O)O[C@]4(CC)C(=O)OCc5c4cc4n(c5=O)Cc5c-4nc4ccccc4c5CC)C(C)C)C(=O)NCCC(=O)O)cc3)c2)c1` [Compound E1]: in series [1], the AUC fell in the range of 10000 to 50000 ng·h/mL, the clearance fell in the range of 0.5 to 5 mL/min/kg, the half-life lay in the range of 5 to 10 h and the Vd was greater than 0.1 L/kg.
`CCCNC(=O)Nc1cccc(S(=O)(=O)Nc2cccc([C@@H](CC(=O)O)NC(=O)Nc3ccc(NC(=O)NCCOCCOCCOCCC(=O)N[C@@H](CCCCNC(=O)CCCC(=O)NCCOCCOCCOCCC(=O)N[C@@H](CC(=O)O)C(=O)N4CCC[C@H]4C(=O)N[C@H](C(=O)O[C@]4(CC)C(=O)OCc5c4cc4n(c5=O)Cc5c-4nc4ccccc4c5CC)C(C)C)C(=O)NCCCCCCCC(=O)O)cc3)c2)c1` [Compound E2]: in series [1], the AUC lay within 50000 to 150000 ng·h/mL, the clearance lay within 0.5 to 5 mL/min/kg, the half-life was 5 to 10 h and the Vd lay in the range of 0.01 to 0.1 L/kg.
The corresponding values for `CCCNC(=O)Nc1cccc(S(=O)(=O)Nc2cccc([C@@H](CC(=O)O)NC(=O)Nc3ccc(NC(=O)NCCOCCOCCOCCC(=O)N[C@@H](CCCCNC(=O)CCCC(=O)N(C)CC(=O)N(C)CC(=O)N(C)CC(=O)N(C)CC(=O)O)C(=O)NCCOCCOCCOCCC(=O)N[C@@H](CC(=O)O)C(=O)N4CCC[C@H]4C(=O)N[C@H](C(=O)O[C@]4(CC)C(=O)OCc5c4cc4n(c5=O)Cc5c-4nc4ccccc4c5CC)C(C)C)cc3)c2)c1` [Compound E3] (I: {X1-CO-PEG3}-K[PEG3]DPV-{Camptothecin(7-Et)} / II: [Sar][Sar][Sar][Sar]-OH; linker I:1-II:N via Glutaryl) are 10000 to 50000 ng·h/mL, 0.5 to 5 mL/min/kg, 5 to 10 h and greater than 0.1 L/kg.

For orientation: AUC means the area under the concentration-time curve, a measure of exposure. A higher AUC goes with more exposure. What is called clearance is the volume of plasma or blood freed of the substance per unit of time. Higher therefore signals a high capacity for elimination. In general, half-life refers to the time in which the quantity being followed falls by half. One may read the IC50 as the concentration needed to halve the response being measured. Read a low IC50 as greater potency in that assay.
